ChEMBL document CHEMBL3632499, “Synthesis and Antiproliferative Activity Evaluation of the Disulfide-Containing Cyclic Peptide Thiochondrilline C and Derivatives” (J Nat Prod, 2015)
Positions of bridges follow the written chain, without caps; N, C: chain ends. Non-standard residues stand in square brackets, D forms with d. Residues, ends and D or L forms follow the SMILES beside them. Chains are numbered I, II in the order given. *: point of attachment. Quinaldoyl(3-OH) = O=C(c1nc2ccccc2cc1O)*; NMeC = CN[C@@H](CS)C(=O)O

Assays:
[1] = system: A549; test: Antiproliferative activity against human A549 cells assessed as growth inhibition at 10 uM; format: functional; conditions: read-out: GI
[2] = system: A549; test: Cytotoxicity against human A549 cells; format: functional, cell-based

Row | Compound | inhibition of growth at 10 µM [1] | EC50 [2]
1 | CN1C(=O)CNC(=O)[C@H](NC(=O)c2nc3ccccc3cc2O)CSSC[C@H]1C(=O)O | < 30% | –
2 | COC(=O)[C@H](C)N(C)C(=O)[C@@H]1CSSC[C@@H](NC(=O)c2nc3ccccc3cc2O)C(=O)NCC(=O)N1C | < 30% | –
3 | CSC[C@H]1C(=O)SC[C@@H](NC(=O)c2nc3ccccc3cc2O)C(=O)NCC(=O)N(C)[C@H]2CSSC[C@@H](C(=O)N1C)N(C)C(=O)CNC(=O)[C@H](NC(=O)c1nc3ccccc3cc1O)CSC(=O)[C@H](CSC)N(C)C2=O [THIOCORALINE A] (I: {Quinaldoyl(3-OH)}-[dC]G[NMeC][NMeC](Me) / II: {Quinaldoyl(3-OH)}-[dC]G[NMeC][NMeC](Me); thioester I:1-II:C, I:C-II:1; disulfide I:3-II:3) | – | 10 nM
